Data taken from US20250326748A1, “COMPOUNDS AND METHODS FOR MODULATING SPLICING” (REMIX THERAPEUTICS INC., priority 2022, published 2025).
Where a name gives a salt, the structure may show the parent alone. Read-outs that look alike come from different tables or passages of the source.

Key:
[1] = tested on: K562 cells; test: Cell viability, Cell Titer Glo 2.0 assay, K562; settings: 72 hours
[2] = tested on: Target C; test: HiBiT protein abundance assay, Target C (K562 HiBiT knock-in); assay type: cell-based, human; settings: HiBiT knock-in cells, 24 hours
Method: (§1) Cells were maintained in IMDM with 10% FBS. Before the assay, cells were diluted with […] growth media (IMDM+1% FBS media) and were seeded in a 384-well plate at a density of 10000 cells/well (for each cell line listed in Table 6). Each compound was prepared as a 10-point 3-old serial dilution in DMSO with the top dose at a final concentration of 10 μM in the well. Unmodified K562 cells were added at the previously specified density with DMSO to serve as an assay baseline and positive control (PC) and DMSO only with the respective modified cell lines was added to the negative control (NC) columns. Final DMSO concentration was kept at or below 0.25%. Treated cell plates were placed in an incubator at 37° C. with 5% CO2 for 24 hours. After 24 hours, 25 μL of Complete HiBit Lytic reagent was added to each well at room temperature (e.g. one plate requiring 10 ml Lytic Buffer, 100 μL LgBiT Protein, 200 μL Lytic Substrate), shaken for 5 minutes at 600 RPM, then left to sit for 10 minutes for signal to stabilize before reading on a Spark Cyto plate reader (Tecan) with a 500 ms measurement time.
(§2) To determine compound effects on protein abundance of each target in Table 6, the percent response for each respective cell line was calculated at each compound concentration as follows:
(§3) For the normalized response at each concentration, a four-parameter logistical regression was fit to the data and the response was interpolated at the 50% value to determine a concentration for protein abundance at 50% (IC50) the untreated control.

[3] = tested on: HiBiT-tagged MYB protein; test: HiBiT protein abundance assay, MYB (K562 HiBiT knock-in); assay type: cell-based, human; settings: HiBiT knock-in cells, 24 hours
Method: (§4) Compounds described herein were used to screen for effects on quantitative protein abundance using a HiBit assay system (Promega). Quantitative protein abundance was determined by measuring the protein levels of HiBit-tagged protein targets expressed in cell culture via luminescence using the Nano-Glo HiBiT Lytic Detection System, which uses a split complementation assay format to reconstitute NanoBiT enzyme to generate a luminescent signal. A protein abundance assay was developed such that endogenous protein targets could be modified with the HiBiT peptide tag and their abundance could be assessed after compound treatment. Briefly, K562 cell lines containing a HiBiT-modification were treated with various compounds described herein (e.g., compounds of Formulas (I), or (II)). After treatment for 24 hours, the protein abundance of a specific target was determined by measuring luminescence.
(§5) • Promega Nano-Glo HiBiT Lytic Detection System (cat #N3030) • Corning 384-well TC-treated microplates (cat #3570)
as §1, §2, §3

[4] = tested on: HiBiT-tagged HTT protein; test: HiBiT protein abundance assay, HTT (K562 HiBiT knock-in); assay type: cell-based, human; settings: HiBiT knock-in cells, 24 hours
Method: as §4, §5, §1, §2, §3

[5] = tested on: MYB mRNA; test: Splicing RT-qPCR assay, MYB canonical (CJ) and alternative (AJ) junction mRNA; assay type: cell-based, human; settings: Homo sapiens; for IC50: canonical junction mRNA; for AC50: alternative junction mRNA, read-out: MYB AJ (AC50, increase in AJ mRNA)
In short: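 A673 or K562 cells were treated for 24 h at 37 °C with an 11-point 3-fold compound dilution series (top final 10 uM, DMSO ≤0.25%). Lysates then went to one-step TaqMan RT-qPCR quantifying canonical (CJ) and alternative-exon (AJ) junction transcripts, normalized to a housekeeping gene.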

[6] = qPCR panel, read-out: MYB CJ (decrease in CJ mRNA levels, IC50)
[7] = RT-qPCR, A673 or K562 cells, 24 hours treatment
[8] = RT-qPCR, A673 or K562 cells, 24 hours treatment, read-out: MYB CJ (IC50, decrease in CJ mRNA)

CN[C@@H]1CN(c2cnc3nc(-c4cc5cn(C)nc5c(C)c4O)ccc3c2)C[C@H]1C [Compound 126, 2,7-dimethyl-5-{6-[(3R,4S)-3-methyl-4-(methylamino)382pyrrolidine-1-yl]-1,8-naphthyridin-2-yl}indazol-6-ol]
Effect on Cell Viability, K562 [1]: B (100-1000 nM)
IC50 [2]: 1000 to 10000 nM
IC50 [3]: 100 to 1000 nM
IC50 [4]: 100 to 1000 nM
IC50 [5, 6]: 100 to 1000 nM
AC50 [5, 7]: 100 to 1000 nM
IC50 [5, 8]: 100 to 1000 nM

CN[C@H]1CN(c2cnc3nc(-c4cc5cn(C)nc5c(C)c4O)ccc3c2)C[C@@H]1C [Compound 127, 2,7-dimethyl-5-{6-[(3S,4R)-3-methyl-4-(methylamino)384pyrrolidine-1-yl]-1,8-naphthyridin-2-yl}indazol-6-ol]
Effect on Cell Viability, K562 [1]: A (<100 nM)
IC50 [2]: 100 to 1000 nM
IC50 [3]: < 100 nM
IC50 [4]: < 100 nM
IC50 [5, 6]: < 100 nM
AC50 [5, 7]: 100 to 1000 nM
IC50 [5, 8]: < 100 nM

CN[C@@H]1CN(c2cnc3nc(-c4cc5cn(C)nc5c(C)c4O)ccc3c2)C[C@@H]1C [Compound 128]
Effect on Cell Viability, K562 [1]: A (<100 nM)
IC50 [2]: 100 to 1000 nM
IC50 [3]: < 100 nM
IC50 [4]: 100 to 1000 nM
IC50 [5, 6]: < 100 nM
AC50 [5, 7]: 100 to 1000 nM
IC50 [5, 8]: < 100 nM

CN[C@H]1CN(c2cnc3nc(-c4cc5cn(C)nc5c(C)c4O)ccc3c2)C[C@H]1F [Compound 129, 5-{6-[(3R,4S)-3-fluoro-4-(methylamino)pyrrolidin-1-yl]-1,8-naphthyridin-2-yl}-2,7-dimethylindazol-6-ol]
Effect on Cell Viability, K562 [1]: B (100-1000 nM)
IC50 [2]: 100 to 1000 nM
IC50 [3]: 100 to 1000 nM
IC50 [4]: 100 to 1000 nM
IC50 [5, 6]: 100 to 1000 nM
AC50 [5, 7]: 100 to 1000 nM
IC50 [5, 8]: 100 to 1000 nM

CN[C@@H]1CN(c2cnc3nc(-c4cc5cn(C)nc5c(C)c4O)ccc3c2)C[C@@H]1F [Compound 132, 5-{6-[(3S,4R)-3-fluoro-4-(methylamino)pyrrolidin-1-yl]-1,8-naphthyridin-2-yl}-2,7-dimethylindazol-6-ol]
Effect on Cell Viability, K562 [1]: B (100-1000 nM)
IC50 [2]: 100 to 1000 nM
IC50 [3]: < 100 nM
IC50 [4]: 100 to 1000 nM
IC50 [5, 6]: 100 to 1000 nM
AC50 [5, 7]: < 100 nM
IC50 [5, 8]: 100 to 1000 nM

Cn1cc2cc(-c3cnc4nc(N5CCC(NC(C)(C)C)C5)ccc4c3)c(O)cc2n1 (stereo not drawn) [Compound 133, 5-{7-[3-(tert-butylamino)pyrrolidin-1-yl]-1,8-naphthyridin-3-yl}-2-methylindazol-6-ol]
Effect on Cell Viability, K562 [1]: D (greater than 10 μM)
IC50 [2]: 1000 to 10000 nM
IC50 [3]: 1000 to 10000 nM
IC50 [4]: 100 to 1000 nM
IC50 [5, 6]: > 10000 nM
AC50 [5, 7]: > 10000 nM
IC50 [5, 8]: > 10000 nM

Cn1cc2cc(-c3ccc4cc(N5CCC(NC(C)(C)C)C5)cnc4n3)c(O)cc2n1 (stereo not drawn) [Compound 134, 5-{6-[3-(tert-butylamino)pyrrolidin-1-yl]-1,8-naphthyridin-2-yl}-2-methylindazol-6-ol hydrochloride]
Effect on Cell Viability, K562 [1]: B (100-1000 nM)
IC50 [2]: 100 to 1000 nM
IC50 [3]: 100 to 1000 nM
IC50 [4]: 100 to 1000 nM
IC50 [5, 6]: 100 to 1000 nM
AC50 [5, 7]: 100 to 1000 nM
IC50 [5, 8]: 100 to 1000 nM

Cn1cc2cc(-c3ccc4cc(N5CC[C@@H](NCC6CC6)C5)cnc4n3)c(O)c(F)c2n1 [Compound 135, 5-{6-[(3R)-3-[(cyclopropylmethyl)amino]330pyrrolidine-1-yl]-1,8-naphthyridin-2-yl}-7-fluoro-2-methylindazol-6-ol]
Effect on Cell Viability, K562 [1]: A (<100 nM)
IC50 [2]: < 100 nM
IC50 [3]: < 100 nM
IC50 [4]: < 100 nM
IC50 [5, 6]: < 100 nM
AC50 [5, 7]: < 100 nM
IC50 [5, 8]: < 100 nM

Cn1cc2cc(-c3ccc4cc(N5CC[C@H](NCC6CC6)C5)cnc4n3)c(O)c(F)c2n1 [Compound 136, 5-{6-[(3S)-3-[(cyclopropylmethyl)amino]326pyrrolidine-1-yl]-1,8-naphthyridin-2-yl}-7-fluoro-2-methylindazol-6-ol]
Effect on Cell Viability, K562 [1]: A (<100 nM)
IC50 [2]: 100 to 1000 nM
IC50 [3]: < 100 nM
IC50 [4]: 100 to 1000 nM
IC50 [5, 6]: 100 to 1000 nM
AC50 [5, 7]: < 100 nM
IC50 [5, 8]: 100 to 1000 nM

Cc1c(O)c(-c2ccc3cc(N4CCNCC4)cnc3n2)cc2cn(C)nc12 [Compound 137, 2,7-dimethyl-5-[6-(piperazin-1-yl)-1,8-naphthyridin-2-yl]indazol-6-ol]
Effect on Cell Viability, K562 [1]: B (100-1000 nM)
IC50 [2]: 100 to 1000 nM
IC50 [3]: < 100 nM
IC50 [4]: 100 to 1000 nM
IC50 [5, 6]: < 100 nM
AC50 [5, 7]: < 100 nM
IC50 [5, 8]: < 100 nM

Cc1c(O)c(-c2ccc3cc(N4CCC(N(C)C)CC4)cnc3n2)cc2cn(C)nc12 [Compound 138, 5-{6-[4-(dimethylamino)piperidin-1-yl]-1,8-naphthyridin-2-yl}-2,7-dimethylindazol-6-ol]
Effect on Cell Viability, K562 [1]: A (<100 nM)
IC50 [2]: 1000 to 10000 nM
IC50 [3]: < 100 nM
IC50 [4]: 100 to 1000 nM
IC50 [5, 6]: 100 to 1000 nM
AC50 [5, 7]: 100 to 1000 nM
IC50 [5, 8]: 100 to 1000 nM

CNC1CCN(c2cnc3nc(-c4cc5cn(C)nc5c(C)c4O)cc(Cl)c3c2)C1 (stereo not drawn) [Compound 142, 5-{4-chloro-6-[3-(methylamino)351pyrrolidine-1-yl]-1,8-naphthyridin-2-yl}-2,7-dimethylindazol-6-ol]
Effect on Cell Viability, K562 [1]: A (<100 nM)
IC50 [2]: 100 to 1000 nM
IC50 [3]: < 100 nM
IC50 [4]: < 100 nM
IC50 [5, 6]: < 100 nM
AC50 [5, 7]: < 100 nM
IC50 [5, 8]: < 100 nM

Cc1c(O)c(-c2cc(Cl)c3cc(N4CCC(N(C)C)C4)cnc3n2)cc2cn(C)nc12 (stereo not drawn) [Compound 143, 5-{4-chloro-6-[3-(dimethylamino)357pyrrolidine-1-yl]-1,8-naphthyridin-2-yl}-2,7-dimethylindazol-6-ol]
Effect on Cell Viability, K562 [1]: B (100-1000 nM)
IC50 [2]: 100 to 1000 nM
IC50 [3]: < 100 nM
IC50 [4]: 100 to 1000 nM
IC50 [5, 6]: < 100 nM
AC50 [5, 7]: < 100 nM
IC50 [5, 8]: < 100 nM

Cc1c(O)c(-c2cc(Cl)c3cc(NC4CCNC4)cnc3n2)cc2cn(C)nc12 (stereo not drawn) [Compound 146, 5-[4-chloro-6-(359pyrrolidine-3-ylamino)-1,8-naphthyridin-2-yl]-2,7-dimethylindazol-6-ol]
Effect on Cell Viability, K562 [1]: B (100-1000 nM)
IC50 [2]: 100 to 1000 nM
IC50 [3]: < 100 nM
IC50 [4]: 100 to 1000 nM
IC50 [5, 6]: 100 to 1000 nM
AC50 [5, 7]: < 100 nM
IC50 [5, 8]: 100 to 1000 nM

Cc1c(O)c(-c2cc(Cl)c3cc(N4CCNC(C)C4)cnc3n2)cc2cn(C)nc12 (stereo not drawn) [Compound 147]
Effect on Cell Viability, K562 [1]: B (100-1000 nM)
IC50 [2]: 1000 to 10000 nM
IC50 [3]: 100 to 1000 nM
IC50 [4]: 100 to 1000 nM
IC50 [5, 6]: 100 to 1000 nM
AC50 [5, 7]: 100 to 1000 nM
IC50 [5, 8]: 100 to 1000 nM

Cc1c(O)c(-c2cc(Cl)c3cc(N4C[C@@H](C)N[C@@H](C)C4)cnc3n2)cc2cn(C)nc12 [Compound 149]
Effect on Cell Viability, K562 [1]: B (100-1000 nM)
IC50 [2]: 100 to 1000 nM
IC50 [3]: < 100 nM
IC50 [4]: 100 to 1000 nM
IC50 [5, 6]: < 100 nM
AC50 [5, 7]: < 100 nM
IC50 [5, 8]: < 100 nM

CNC(=O)c1cc(-c2cc3cn(C)nc3c(C)c2O)nc2ncc(N3CCNCC3)cc12 [Compound 150, 2-(6-hydroxy-2,7-dimethylindazol-5-yl)-N-methyl-6-(piperazin-1-yl)-1,8-naphthyridine-4-carboxamide]
Effect on Cell Viability, K562 [1]: D (greater than 10 μM)
IC50 [2]: > 10000 nM
IC50 [3]: > 10000 nM
IC50 [4]: > 10000 nM
IC50 [5, 6]: > 10000 nM
AC50 [5, 7]: > 10000 nM
IC50 [5, 8]: > 10000 nM

Cc1cn2cc(-c3cc(Cl)c4cc(N5CCNCC5)cnc4n3)cc(F)c2n1 [Compound 153, 4-chloro-2-{8-fluoro-2-methylimidazo[1,2-a]pyridin-6-yl}-6-(piperazin-1-yl)-1,8-naphthyridine]
Effect on Cell Viability, K562 [1]: B (100-1000 nM)
IC50 [2]: 1000 to 10000 nM
IC50 [3]: 100 to 1000 nM
IC50 [4]: 100 to 1000 nM
IC50 [5, 6]: 100 to 1000 nM
AC50 [5, 7]: < 100 nM
IC50 [5, 8]: 100 to 1000 nM
